Measurements from PMC7734006 (Cancer Science, 2020).

Columns and labels:
[1] = Plasma alectinib pharmacokinetics; type: in vivo, human
[2] = system: relapsed or refractory ALCL; conditions: 36 pediatric patients treated weekly; cited from earlier work
[3] = system: relapsed or refractory systemic ALCL; conditions: cited from earlier work
[4] = system: relapsed or refractory ALCL; conditions: 6 of 17 patients; cited from earlier work
[5] = patients who achieved CR with BV

CCc1cc2c(cc1N1CCC(N3CCOCC3)CC1)C(C)(C)c1[nH]c3cc(C#N)ccc3c1C2=O [alectinib]
Time to steady-state peak concentration (median) ([1]; cohort A: younger than 15 years, 300 mg/d): 4 h
Time to steady-state peak concentration (median) ([1]; cohort B: younger than 15 years, 600 mg/d): 5 h
Time to steady-state peak concentration (median) ([1]; cohort C: 15 years or older, 600 mg/d): 4 h
Peak concentration of alectinib ([1]; the patient who died following disease progression after the first course (cohort C)): 16.97 mg/mL

CC[C@]1(O)C[C@@H]2CN(CCc3c([nH]c4ccccc34)[C@@](C(=O)OC)(c3cc4c(cc3OC)N(C)[C@H]3[C@@](O)(C(=O)OC)[C@H](OC(C)=O)[C@]5(CC)C=CCN6CC[C@]43[C@@H]65)C2)C1 [vinblastine]
5-year EFS rate [2]: 30%
CR rate [2]: 83%

BV: anti-CD30 Ab drug conjugated to the microtubule-disrupting agent, monomethyl auristatin E
CR rate ([3]; 33 of 58 patients): 57%
Objective response rate ([3]; 50 of 58 patients): 86%
Patients without recurrence with no treatment after a BV treatment regime [3]: approximately 15%
Peripheral neuropathies, patients [3]: 41%
5-year OS [3, 5]: 79%
5-year PFS [3, 5]: 57%

C#CCC(Cc1cnc2nc(N)nc(N)c2n1)c1ccc(C(=O)N[C@@H](CCC(=O)O)C(=O)O)cc1 (stereo partly shown) [pralatrexate]
Objective response rate [4]: 35%
